US20160108391A1, “REAGENT COMPOSITIONS HAVING PYRIDINE-CARBOXYLIC ACID-[…], AS WELL AS METHODS OF MAKING AND USING THE SAME” (Roche Diabetes Care, Inc., priority 2013, published 2016)

Test system: glucose dehydrogenase mutant 2
Details: cNAD instead of NAD, increasing amounts of nicotinic acid
Procedure: Methods: test elements with added nicotinic acid were prepared and analog to Example 1, but with adding coenzyme cNAD (see, Int'l Patent Application Publication No. WO 2007/012494) instead of NAD (same amount on molar basis).
Consequently, test elements were stored: (a) in open vials at 85% r.h. and 35° C., or (b) in closed vials with desiccant at 35° C.

## O=C(O)c1cccnc1 [nicotinic acid, pyridine-3-carboxylic acid]
Closed vials with desiccant at 35° C., FIG. 3b
  stabilizing effect on remaining enzymatic activity, dry conditions: significant stabilizing effect
Open vials at 85% r.h. and 35° C., FIG. 3a
  stabilizing effect on remaining enzymatic activity, humid conditions: significant stabilizing effect
